Consider 14 molecules from PubChem BioAssay (NCI).

Test systems include A498 renal; CAKI-1 renal; HCC-2998 colon; M14 melanoma; MDA-MB-231 breast; NCI-H522 lung; SW-620 colon; T-47D breast; TK-10 renal; UO-31 renal.
Holding throughout (assay): growth of human tumour cells (NCI), 48 h

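Each compound was tested at five concentrations against cells in 96-well plates for 48 hours. At the TGI there is no net growth.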

For `COc1ccc(Nc2nc(N)c(C(=O)c3cccs3)s2)cc1`, the TGI is 40.5 µM in the test with A498 renal; greater than 100 µM in the test on CAKI-1 renal; 8.85 µM in the test with HCC-2998 colon; 34.6 µM in the test on M14 melanoma; greater than 80.8 µM in the test on MDA-MB-231 breast; greater than 100 µM with NCI-H522 lung. Moreover, the TGI was greater than 100 µM with SW-620 colon, greater than 64.1 µM in the test with T-47D breast, 24.3 µM with TK-10 renal and greater than 41.1 µM with UO-31 renal.

As to `Cc1c(C(=O)O)n2cnnc2c2ccccc12`, the TGI in the test on A498 renal, in the test with CAKI-1 renal, in the test on HCC-2998 colon, with M14 melanoma, with MDA-MB-231 breast and in the test on NCI-H522 lung was greater than 100 µM in each case. Also, the TGI in the test with SW-620 colon, with T-47D breast, in the test on TK-10 renal and in the test on UO-31 renal was greater than 100 µM each time.

For the molecule `CC(C)(C)OC(=O)NCC(=O)N1CCN(C(=O)CNC(=O)OC(C)(C)C)CC1`, the TGI was greater than 100 µM with A498 renal; greater than 100 µM with CAKI-1 renal; greater than 100 µM in the test with HCC-2998 colon; greater than 100 µM in the test with M14 melanoma; greater than 100 µM in the test with MDA-MB-231 breast; 7.12 µM with NCI-H522 lung. Also, the TGI in the test with SW-620 colon, in the test on T-47D breast, in the test on TK-10 renal and in the test with UO-31 renal was greater than 100 µM in each case.

For the molecule `CCOC(=O)[C@@H]1ON2OC(OC3CCCC3(c3ccccc3)c3ccccc3)C(OC(C)=O)[C@H]3OC(=O)[C@@H]1C32` (some centres undefined), the TGI with A498 renal was greater than 100 µM; in the test with CAKI-1 renal, greater than 100 µM; in the test on HCC-2998 colon it was greater than 100 µM; in the test with M14 melanoma, greater than 100 µM; in the test with MDA-MB-231 breast it was greater than 100 µM; in the test with NCI-H522 lung it was 72.2 µM. The TGI in the test with SW-620 colon, in the test on T-47D breast, in the test with TK-10 renal and in the test on UO-31 renal was greater than 100 µM each time.

Take `OC1C[C@H](c2ccccc2)C2(C(O)c3ccccc3C2O)[C@@H](c2ccccc2)C1` (some centres undefined): the TGI in the test with A498 renal, in the test with CAKI-1 renal, with HCC-2998 colon, in the test with M14 melanoma, in the test with MDA-MB-231 breast and in the test on NCI-H522 lung was greater than 100 µM throughout. Moreover, the TGI in the test on SW-620 colon, in the test with T-47D breast, with TK-10 renal and in the test on UO-31 renal was greater than 100 µM throughout.

For the molecule `C[C@H]1COC2=C1C(=O)C(=O)c1c2ccc2c1CCCC2(C)C`, the TGI with A498 renal is 52.6 µM; with CAKI-1 renal, greater than 54.9 µM; in the test with HCC-2998 colon it was 19.6 µM; in the test on M14 melanoma it was 3.15 µM; in the test with MDA-MB-231 breast it was greater than 100 µM; in the test on NCI-H522 lung, 12.3 µM. Moreover, the TGI was 34.5 µM in the test on SW-620 colon, greater than 100 µM with T-47D breast, 65.9 µM in the test with TK-10 renal and 14.3 µM in the test with UO-31 renal.

With `CCC(NC1=NCCO1)c1cccs1` (centres undefined), the TGI with A498 renal is 42.5 µM; with CAKI-1 renal it was 30.9 µM; with HCC-2998 colon, 28.9 µM; in the test on M14 melanoma it was 33.3 µM; with MDA-MB-231 breast, 44.6 µM; with NCI-H522 lung it was 35.6 µM. Moreover, the TGI is greater than 100 µM with SW-620 colon, 37 µM in the test with T-47D breast, 29.9 µM in the test on TK-10 renal and 32.7 µM with UO-31 renal.

Take `CC(C)(C)[Si](C)(C)OCC1OC(n2cnc3c(=O)[nH]c(N)nc32)C(O[Si](C)(C)C(C)(C)C)C1O[Si](C)(C)C(C)(C)C` (centres undefined): the TGI in the test with A498 renal is 6.21 µM; in the test with CAKI-1 renal, 52.9 µM; with HCC-2998 colon, 4.02 µM; in the test with M14 melanoma, 2.89 µM; in the test with MDA-MB-231 breast, 10.5 µM; with NCI-H522 lung, 3.61 µM. Also, the TGI in the test with SW-620 colon was greater than 20.4 µM; with T-47D breast, 5.14 µM; in the test on TK-10 renal, 5.97 µM; in the test on UO-31 renal, 15.3 µM.

For `COc1ccc(N2NC(c3ccccc3)(c3ccccc3)C(C)C2=O)cc1` (centres undefined), the TGI with A498 renal, in the test with CAKI-1 renal, with HCC-2998 colon, in the test on M14 melanoma, in the test with MDA-MB-231 breast and with NCI-H522 lung was greater than 100 µM throughout. The TGI with SW-620 colon, in the test on T-47D breast, in the test with TK-10 renal and in the test on UO-31 renal was greater than 100 µM each time.

With `c1ccc(CN2CCN3CCN(CC2)CCN(Cc2ccccc2)CC3)cc1`, the TGI in the test on A498 renal was 27.5 µM; in the test with CAKI-1 renal, greater than 88.3 µM; in the test with HCC-2998 colon it was 23.3 µM; in the test with M14 melanoma, 19.6 µM; in the test on MDA-MB-231 breast it was 18.4 µM; in the test on NCI-H522 lung, 16 µM. The TGI in the test with SW-620 colon is 63.3 µM; in the test with T-47D breast, 35.8 µM; in the test with TK-10 renal, 23.5 µM; in the test on UO-31 renal, greater than 81.5 µM.

Consider `CC(=O)/C(=C/N1CCNC1=S)C(=O)Nc1ccccc1C`, for which the TGI with A498 renal, with CAKI-1 renal, with HCC-2998 colon, in the test with M14 melanoma, in the test on MDA-MB-231 breast and in the test with NCI-H522 lung was greater than 100 µM in each case. The TGI in the test on SW-620 colon, with T-47D breast, with TK-10 renal and in the test with UO-31 renal was greater than 100 µM in each case.

Turning to `S=c1[nH]c2ccc(I)cc2c(=S)n1Cc1ccccc1`, the TGI with A498 renal is 55.4 µM; in the test on CAKI-1 renal it was greater than 100 µM; in the test with M14 melanoma it was 31.6 µM; with MDA-MB-231 breast, 20.4 µM; in the test with NCI-H522 lung it was 16.5 µM; in the test on SW-620 colon it was 14.7 µM. For the same molecule, the TGI is 5.5 µM in the test on T-47D breast, 30.8 µM in the test on TK-10 renal and 24.8 µM in the test on UO-31 renal.

With `[N-]=[N+]=Nc1c([N+](=O)[O-])c(=O)n2c3c(cccc13)CCC2`, the TGI worked out at 50.4 µM in the test on A498 renal; 27.9 µM in the test on CAKI-1 renal; 34.4 µM with HCC-2998 colon; 26.2 µM with M14 melanoma; 25.9 µM in the test on MDA-MB-231 breast; 4.58 µM in the test with NCI-H522 lung. The TGI in the test with SW-620 colon amounted to 13.9 µM; with T-47D breast, 26.3 µM; in the test with TK-10 renal, 34.3 µM; in the test with UO-31 renal, 28.4 µM.

With `Cc1ccc(NC(=O)CSC(N)=O)cc1C`, the TGI in the test on A498 renal, in the test on CAKI-1 renal, in the test on HCC-2998 colon, with M14 melanoma, in the test on MDA-MB-231 breast and in the test on NCI-H522 lung was greater than 100 µM in each case. In addition, the TGI in the test with SW-620 colon, in the test with T-47D breast, in the test on TK-10 renal and in the test on UO-31 renal was greater than 100 µM each time.
